Laboratory results as given in US10647745B2, “Compound for treating sequelae of ischemic cerebral stroke” (priority 2015, dated 2020).
Residues, ends and D or L forms follow the SMILES beside them.

Columns and labels:
[1] = test system: right cerebral artery ischemia/reperfusion model in rats; test: Neurologic deficit score in rat 1.5-hour ischemia/reperfusion model; assay type: in vivo, Sprague-Dawley (SD) rats; conditions: 3.6 mg/kg i.p. once a day, vs model group without compound
Procedure: (§1) Sprague-Dawley (SD) rats, male, weighing 280-320 g, clean, feeding, conditions: room temperature of 20-25° C., humidity of 30-60%, well ventilated, ad libitum diet; the animals were acclimatized in the feeding environment for three days prior to the experiment.
(§2) The rats were anesthetized with 4% chloral hydrate (350 mg/kg, ip.) and then were fixed in a supine position. A midline ventral neck incision was made, the right common carotid artery was separated and snared with two sutures for further use. Then, the internal carotid artery and external carotid artery were separated, and the external carotid artery was ligatured. The separated common carotid artery was ligatured at its proximal end with a thread, and the blood flow of the same was blocked at its distal end with a bulldog clamp. A small opening was cut therebetween and a nylon suture (4-0) which is heated at one end into a bead-like shape (having a diameter of <0.3 mm) was inserted into the small opening. […]
Neurologic deficit scores were assessed for the above experimental animals according to the following procedure before the beginning of experiment and 24 hours, 1 day, 3 days, 7 days, 14 days, 28 days, 56 days, and 112 days after the beginning of experiment; Score rules: see Zea Longer score and NSS score, full score of 10; […]

[2] = Body weight of rats in 1.5-hour ischemia/reperfusion model; assay type: in vivo, Sprague-Dawley (SD) rats; conditions: 3.6 mg/kg i.p. once a day
Procedure: as §1
as §2, with “opening. The bulldog clamp was removed, and the nylon suture was gently advanced to the origin of the anterior cerebral artery (18-20 mm), thereby causing arterial ischemia in brain by blocking the blood supply of the cerebral artery. The skin was sutured and was sterilized with tincture of iodine.” for “opening.”

With `CC(C)CC(NC(=O)C(CCC(N)=O)NC(=O)C(NC(=O)C(CO)NC(=O)C(Cc1c[nH]cn1)NC(=O)C(N)C(C)C)C(C)C)C(=O)NC(Cc1ccc(O)cc1)C(=O)O` (stereo not shown) [compound of formula (III)] (H-VHSVQLY-OH; configuration not given here) the “neuroethology score (neurologic deficit score)” value ([1]; I1.5R+1 week+dosing for 4 weeks, statistically significant in 2nd, 3rd, 4th, 5th and 7th week after operation) was “gradually declined neuroethology score”, the neurological scores ([1]; I1.5R+2 weeks+dosing for 4 weeks, statistically significant at fifth week after operation) was “declined from the beginning of the administration” and the weight ([2]; I1.5R+1 week+dosing for 4 weeks, vs model group without compound) was “gradually increased weight”. The weight ([2]; I1.5R+2 weeks+dosing for 4 weeks, vs model group, weight data said not demonstrative (groups differed before dosing)) was “gradually increased weight”.
